Experimental data as given in PubChem BioAssay AID1963854 (Molecular Pharmacology Branch, DTP, NCI, 2024).
pIC50: −log10 of the molar value.

Tested on: 186277-243-T-J2-PDC complex spheroid viability
Test: Anticancer human tumor 186277-243-T-J2-PDC patient-derived colon adenocarcinoma cell line growth inhibition [POLQ]
Settings: for pIC50: curve of first compound; for viability, T/C: stronger effect = lower value
In short: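 PDC + HUVEC + MSC complex spheroids; POLQ inhibitors ± partner drugs; top conc. at/near clinical Cmax, else 10 microM (SN-38 1 microM), half-log dilutions; 37 degrees C, 5% CO2.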

[1] = second compound 0.0316 µM, first compound 0.0316 µM
[2] = second compound 0.0316 µM, first compound 0.1 µM
[3] = second compound 0.0316 µM, first compound 0.316 µM
[4] = second compound 0.0316 µM, first compound 1 µM
[5] = second compound 0.0316 µM, first compound 3.16 µM
[6] = second compound 0.0316 µM, first compound 10 µM
[7] = second compound 0.1 µM, first compound 0.0316 µM
[8] = second compound 0.1 µM, first compound 0.1 µM
[9] = second compound 0.1 µM, first compound 0.316 µM
[10] = second compound 0.1 µM, first compound 1 µM
[11] = second compound 0.1 µM, first compound 3.16 µM
[12] = second compound 0.1 µM, first compound 10 µM
[13] = second compound 0.316 µM, first compound 0.0316 µM
[14] = second compound 0.316 µM, first compound 0.1 µM
[15] = second compound 0.316 µM, first compound 0.316 µM
[16] = second compound 0.316 µM, first compound 1 µM
[17] = second compound 0.316 µM, first compound 3.16 µM
[18] = second compound 0.316 µM, first compound 10 µM
[19] = second compound 1 µM, first compound 0.0316 µM
[20] = second compound 1 µM, first compound 0.1 µM
[21] = second compound 1 µM, first compound 0.316 µM
[22] = second compound 1 µM, first compound 1 µM
[23] = second compound 1 µM, first compound 3.16 µM
[24] = second compound 1 µM, first compound 10 µM
[25] = second compound 3.16 µM, first compound 0.0316 µM
[26] = second compound 3.16 µM, first compound 0.1 µM
[27] = second compound 3.16 µM, first compound 0.316 µM
[28] = second compound 3.16 µM, first compound 1 µM
[29] = second compound 3.16 µM, first compound 3.16 µM
[30] = second compound 3.16 µM, first compound 10 µM
[31] = second compound 10 µM, first compound 0.0316 µM
[32] = second compound 10 µM, first compound 0.1 µM
[33] = second compound 10 µM, first compound 0.316 µM
[34] = second compound 10 µM, first compound 1 µM
[35] = second compound 10 µM, first compound 3.16 µM
[36] = second compound 10 µM, first compound 10 µM
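Further: spheroids exposed to compounds for seven days.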
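Wherever viability, T/C is given: 100% = DMSO vehicle control viability.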

## COc1ccc([C@@H](O)c2cc(-c3ncnc4cc(N5CCOCC5)ccc34)c(F)cc2Cl)nn1 + COC1C(OC(N)=O)C(O)C(Oc2ccc3c(O)c(NC(=O)c4ccc(O)c(CC=C(C)C)c4)c(=O)oc3c2C)OC1(C)C
Second compound 0.0316 µM
  pIC50: 5.20
Second compound 0.1 µM
  pIC50: 5.25
Second compound 0.316 µM
  pIC50: 5.26
Second compound 1 µM
  pIC50: 5.21
Second compound 3.16 µM
  pIC50: 5.27
Second compound 10 µM
  pIC50: 5.25
[1]
  viability, T/C: 102%
[2]
  viability, T/C: 97.2%
[3]
  viability, T/C: 109%
[4]
  viability, T/C: 95.2%
[5]
  viability, T/C: 79%
[6]
  viability, T/C: 30.7%
[7]
  viability, T/C: 103%
[8]
  viability, T/C: 92.2%
[9]
  viability, T/C: 106%
[10]
  viability, T/C: 99.2%
[11]
  viability, T/C: 72.6%
[12]
  viability, T/C: 27.1%
[13]
  viability, T/C: 102%
[14]
  viability, T/C: 108%
[15]
  viability, T/C: 108%
[16]
  viability, T/C: 110%
[17]
  viability, T/C: 71.1%
[18]
  viability, T/C: 27.9%
[19]
  viability, T/C: 90.9%
[20]
  viability, T/C: 101%
[21]
  viability, T/C: 113%
[22]
  viability, T/C: 110%
[23]
  viability, T/C: 78%
[24]
  viability, T/C: 29.7%
[25]
  viability, T/C: 106%
[26]
  viability, T/C: 103%
[27]
  viability, T/C: 108%
[28]
  viability, T/C: 116%
[29]
  viability, T/C: 70%
[30]
  viability, T/C: 26.1%
[31]
  viability, T/C: 108%
[32]
  viability, T/C: 101%
[33]
  viability, T/C: 109%
[34]
  viability, T/C: 101%
[35]
  viability, T/C: 72.6%
[36]
  viability, T/C: 28%

## CCc1cc2c(N3CCc4c(cc(Cn5ccnc5)cc4-c4cn(C)nc4C(F)(F)F)C3=O)ccnc2c(OC)n1 + Nc1ccc(C#CCN(C(=O)Cc2ncc(C(F)(F)F)cc2C(F)(F)F)c2ccc(F)cc2)nn1
Second compound 0.0316 µM
  pIC50: < 5.00
Second compound 0.1 µM
  pIC50: < 5.00
Second compound 0.316 µM
  pIC50: < 5.00
Second compound 1 µM
  pIC50: < 5.00
Second compound 3.16 µM
  pIC50: < 5.00
Second compound 10 µM
  pIC50: < 5.00
[1]
  viability, T/C: 94.6%
[2]
  viability, T/C: 95.7%
[3]
  viability, T/C: 91.6%
[4]
  viability, T/C: 85.6%
[5]
  viability, T/C: 96.3%
[6]
  viability, T/C: 111%
[7]
  viability, T/C: 90.2%
[8]
  viability, T/C: 92.2%
[9]
  viability, T/C: 100%
[10]
  viability, T/C: 97.8%
[11]
  viability, T/C: 119%
[12]
  viability, T/C: 95.5%
[13]
  viability, T/C: 88.8%
[14]
  viability, T/C: 111%
[15]
  viability, T/C: 90.9%
[16]
  viability, T/C: 108%
[17]
  viability, T/C: 104%
[18]
  viability, T/C: 114%
[19]
  viability, T/C: 103%
[20]
  viability, T/C: 102%
[21]
  viability, T/C: 93.1%
[22]
  viability, T/C: 94.6%
[23]
  viability, T/C: 110%
[24]
  viability, T/C: 105%
[25]
  viability, T/C: 109%
[26]
  viability, T/C: 98.7%
[27]
  viability, T/C: 112%
[28]
  viability, T/C: 100%
[29]
  viability, T/C: 106%
[30]
  viability, T/C: 94.2%
[31]
  viability, T/C: 117%
[32]
  viability, T/C: 99%
[33]
  viability, T/C: 100%
[34]
  viability, T/C: 117%
[35]
  viability, T/C: 121%
[36]
  viability, T/C: 90.9%

## CC1COCCN1c1cc(C2(S(C)(=N)=O)CC2)nc(-c2ccnc3[nH]ccc23)n1 (stereo unspecified) + Cc1cccc(N(C)C(=O)C2C(O)CCN2c2nc(C)cc(C(F)(F)F)c2C#N)c1
Second compound 0.0316 µM
  pIC50: 6.06
Second compound 0.1 µM
  pIC50: 6.10
Second compound 0.316 µM
  pIC50: 6.08
Second compound 1 µM
  pIC50: 6.07
Second compound 3.16 µM
  pIC50: 6.10
Second compound 10 µM
  pIC50: 6.11
[1]
  viability, T/C: 102%
[2]
  viability, T/C: 102%
[3]
  viability, T/C: 99%
[4]
  viability, T/C: 42.6%
[5]
  viability, T/C: 8.14%
[6]
  viability, T/C: 6.1%
[7]
  viability, T/C: 99.1%
[8]
  viability, T/C: 103%
[9]
  viability, T/C: 109%
[10]
  viability, T/C: 37.1%
[11]
  viability, T/C: 8.3%
[12]
  viability, T/C: 5.32%
[13]
  viability, T/C: 117%
[14]
  viability, T/C: 105%
[15]
  viability, T/C: 103%
[16]
  viability, T/C: 39.6%
[17]
  viability, T/C: 7.67%
[18]
  viability, T/C: 6.8%
[19]
  viability, T/C: 97%
[20]
  viability, T/C: 104%
[21]
  viability, T/C: 107%
[22]
  viability, T/C: 40.7%
[23]
  viability, T/C: 7.51%
[24]
  viability, T/C: 5.6%
[25]
  viability, T/C: 108%
[26]
  viability, T/C: 108%
[27]
  viability, T/C: 106%
[28]
  viability, T/C: 35.9%
[29]
  viability, T/C: 8.67%
[30]
  viability, T/C: 6.42%
[31]
  viability, T/C: 102%
[32]
  viability, T/C: 111%
[33]
  viability, T/C: 108%
[34]
  viability, T/C: 34.7%
[35]
  viability, T/C: 7.11%
[36]
  viability, T/C: 5.36%
